Assay results published in PMC7774954, “Interactomic affinity profiling by holdup assay: Acetylation and distal residues impact the PDZome-binding specificity of PTEN phosphatase” (PLoS ONE, 2020).
*1 amine or outer side, *2 acyl side, *3 side chain or, on linkers, in order; H or OH if unused. Where a SMILES comes first, the peptide text is derived from it. The star is where a group is joined. X1 = O=C(CCCC[C@@H]1SC[C@@H]2NC(=O)N[C@@H]21)NCCCOCCOCCOCCCN*; Suc = O=C(CCC(=O)[*:2])[*:1]

Assays:
[1] = test system: INTU-1; test: Holdup assay, INTU-1; format: binding, human
[2] = target: T1, MAGI1 PDZ 3 (Homo sapiens, UniProt Q96QZ7); test: Holdup assay, MAGI1-3; format: binding; details: for BI: MAGI1-3
T1 construct: made in house; host or cells: E. coli
Method: (§1) The holdup assay was performed on a Tecan freedom Evo200 robot with 384-well plates in singlicate for the three 11-mer PTEN variants and the 13-mer PTEN peptide as described in [31, 32]. Briefly, prior to interaction assay, 2.5 μL of streptavidin resin was saturated in each well with 20 μL of biotinylated PBM peptides (42 μM) and then washed twice with an excess of free biotin, while the reference resin was incubated only with biotin. Right before the holdup experiment, the PDZ library was spiked with an internal standard of lysozyme. Then, the biotin- or PBM-saturated resin was incubated, each in a distinct well of a 384-well plate, with complete cell lysates diluted so that the concentration of the tag-PDZ present in the crude extract is adjusted at 4 μM. After a sufficient time to reach complex equilibrium (15 min.), a fast and mild filtration step is performed and the tag-PDZ concentrations were measured by capillary electrophoresis instrument (LabChip GXII, PerkinElmer, Massachusets, USA). Standard markers were used to convert migration time into molecular weight on the LabChip software and inappropriate molecular weight markers were corrected or excluded.
(§2) For filtered data, the BI was extracted with the following equation (Eq 1) that estimates the depleted fraction after superimposition of the sample and reference electropherograms: BI=Iref−Ilig/Iref (1) where Iref and Ilig are the intensities of the tag-PDZ peaks measured, for each PDZ domain/PBM peptide interaction pair, in the biotin reference and the PBM electropherograms, respectively.
(§3) BIs were transformed into dissociation constants (KD) using the following formula: KD=([PDZtot]−BI·[PDZtot])·([PBMtot]−BI·[PDZtot])/BI·[PDZtot] (2) where [PDZtot] and [PBMtot] correspond to the total concentrations of the PDZ domain (usually around 4 μM) and the PBM peptide used during the assay. Since the PBMtot concentration in the resin during the holdup assay parameter may differ from one peptide to another and remains unknown, it is impossible to directly convert BI values into KD constants. We systematically determined the KD constants for a subset of PDZ/PBM pairs by competitive FP. […] For each PBM, the average peptide concentration was calculated after outlier rejection based on the absolute distances from the median as compared to three times the standard deviation (3σ rule), with never more than 2 values rejected.

[3] = target: T2, LNX2-2 (Homo sapiens, UniProt Q8N448); test: Holdup assay, LNX2-2; format: binding
T2 sequence (Q8N448 339-422): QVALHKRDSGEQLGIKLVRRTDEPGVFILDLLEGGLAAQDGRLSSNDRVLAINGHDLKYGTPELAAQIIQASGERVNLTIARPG

[4] = test system: GRIP1-3; test: Holdup assay, GRIP1-3; format: binding, human
[5] = target: T3, MAST3 PDZ 1 (Homo sapiens, UniProt O60307); test: Holdup assay, MAST3-1; format: binding; details: for BI: MAST3-1
T3 construct: made in house; host or cells: E. coli
T3 sequence (O60307 950-1038 limits assumed): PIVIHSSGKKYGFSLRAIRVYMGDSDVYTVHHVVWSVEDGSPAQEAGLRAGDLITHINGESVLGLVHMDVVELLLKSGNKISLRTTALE
Method: as §1, §2, §3

[6] = test system: INADL-1; test: Holdup assay, INADL-1; format: binding, human
[7] = target: T4, DFNB31-3 (Homo sapiens, UniProt Q9P202); test: Holdup assay, DFNB31-3; format: binding
T4 sequence (Q9P202 1-907): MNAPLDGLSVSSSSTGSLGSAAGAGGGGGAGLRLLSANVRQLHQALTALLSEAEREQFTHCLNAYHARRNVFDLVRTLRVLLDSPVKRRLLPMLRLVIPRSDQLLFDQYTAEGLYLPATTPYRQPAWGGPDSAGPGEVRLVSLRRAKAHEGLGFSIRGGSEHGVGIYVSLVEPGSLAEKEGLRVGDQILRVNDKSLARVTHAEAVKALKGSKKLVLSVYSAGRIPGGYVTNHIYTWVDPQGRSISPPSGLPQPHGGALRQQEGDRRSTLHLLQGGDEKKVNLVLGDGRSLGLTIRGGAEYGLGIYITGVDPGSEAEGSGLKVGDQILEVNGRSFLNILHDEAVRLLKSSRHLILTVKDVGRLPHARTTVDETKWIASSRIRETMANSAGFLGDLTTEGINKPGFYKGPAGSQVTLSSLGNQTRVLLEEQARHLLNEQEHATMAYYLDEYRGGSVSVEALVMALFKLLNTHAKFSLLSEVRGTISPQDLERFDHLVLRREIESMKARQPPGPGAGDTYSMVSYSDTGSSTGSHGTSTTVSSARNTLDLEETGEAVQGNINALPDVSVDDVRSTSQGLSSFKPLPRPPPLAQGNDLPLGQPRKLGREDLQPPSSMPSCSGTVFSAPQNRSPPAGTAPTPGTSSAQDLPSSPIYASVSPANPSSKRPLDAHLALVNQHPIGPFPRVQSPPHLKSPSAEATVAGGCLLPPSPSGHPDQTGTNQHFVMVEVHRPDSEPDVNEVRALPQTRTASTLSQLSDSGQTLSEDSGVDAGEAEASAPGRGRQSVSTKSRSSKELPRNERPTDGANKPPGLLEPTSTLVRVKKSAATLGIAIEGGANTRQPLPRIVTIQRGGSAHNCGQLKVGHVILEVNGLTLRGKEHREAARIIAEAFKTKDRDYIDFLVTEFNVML

[8] = test system: CASK-1; test: Holdup assay, CASK-1; format: binding, human
[9] = target: GRASP-1 (Homo sapiens, UniProt Q7Z6J2); test: Holdup assay, GRASP-1; format: binding; details: for BI: GRASP-1
[10] = test system: IL16-1; test: Holdup assay, IL16-1; format: binding, human
[11] = test system: LNX2-1; test: Holdup assay, LNX2-1; format: binding, human
[12] = test system: DFNB31-2; test: Holdup assay, DFNB31-2; format: binding, human
[13] = target: LRRC7-1 (Homo sapiens, UniProt Q96NW7); test: Holdup assay, LRRC7-1; format: binding
[14] = test system: MAGI2-1; test: Holdup assay, MAGI2-1; format: binding, human
[15] = test system: INADL-2; test: Holdup assay, INADL-2; format: binding, human

T1 sequence (Q96QZ7 643-721 limits assumed): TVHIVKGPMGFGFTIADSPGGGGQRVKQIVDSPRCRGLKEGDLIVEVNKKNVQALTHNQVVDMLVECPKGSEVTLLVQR
Chain of LRRC7-1 (Q96NW7 with tags, fused parts or gaps): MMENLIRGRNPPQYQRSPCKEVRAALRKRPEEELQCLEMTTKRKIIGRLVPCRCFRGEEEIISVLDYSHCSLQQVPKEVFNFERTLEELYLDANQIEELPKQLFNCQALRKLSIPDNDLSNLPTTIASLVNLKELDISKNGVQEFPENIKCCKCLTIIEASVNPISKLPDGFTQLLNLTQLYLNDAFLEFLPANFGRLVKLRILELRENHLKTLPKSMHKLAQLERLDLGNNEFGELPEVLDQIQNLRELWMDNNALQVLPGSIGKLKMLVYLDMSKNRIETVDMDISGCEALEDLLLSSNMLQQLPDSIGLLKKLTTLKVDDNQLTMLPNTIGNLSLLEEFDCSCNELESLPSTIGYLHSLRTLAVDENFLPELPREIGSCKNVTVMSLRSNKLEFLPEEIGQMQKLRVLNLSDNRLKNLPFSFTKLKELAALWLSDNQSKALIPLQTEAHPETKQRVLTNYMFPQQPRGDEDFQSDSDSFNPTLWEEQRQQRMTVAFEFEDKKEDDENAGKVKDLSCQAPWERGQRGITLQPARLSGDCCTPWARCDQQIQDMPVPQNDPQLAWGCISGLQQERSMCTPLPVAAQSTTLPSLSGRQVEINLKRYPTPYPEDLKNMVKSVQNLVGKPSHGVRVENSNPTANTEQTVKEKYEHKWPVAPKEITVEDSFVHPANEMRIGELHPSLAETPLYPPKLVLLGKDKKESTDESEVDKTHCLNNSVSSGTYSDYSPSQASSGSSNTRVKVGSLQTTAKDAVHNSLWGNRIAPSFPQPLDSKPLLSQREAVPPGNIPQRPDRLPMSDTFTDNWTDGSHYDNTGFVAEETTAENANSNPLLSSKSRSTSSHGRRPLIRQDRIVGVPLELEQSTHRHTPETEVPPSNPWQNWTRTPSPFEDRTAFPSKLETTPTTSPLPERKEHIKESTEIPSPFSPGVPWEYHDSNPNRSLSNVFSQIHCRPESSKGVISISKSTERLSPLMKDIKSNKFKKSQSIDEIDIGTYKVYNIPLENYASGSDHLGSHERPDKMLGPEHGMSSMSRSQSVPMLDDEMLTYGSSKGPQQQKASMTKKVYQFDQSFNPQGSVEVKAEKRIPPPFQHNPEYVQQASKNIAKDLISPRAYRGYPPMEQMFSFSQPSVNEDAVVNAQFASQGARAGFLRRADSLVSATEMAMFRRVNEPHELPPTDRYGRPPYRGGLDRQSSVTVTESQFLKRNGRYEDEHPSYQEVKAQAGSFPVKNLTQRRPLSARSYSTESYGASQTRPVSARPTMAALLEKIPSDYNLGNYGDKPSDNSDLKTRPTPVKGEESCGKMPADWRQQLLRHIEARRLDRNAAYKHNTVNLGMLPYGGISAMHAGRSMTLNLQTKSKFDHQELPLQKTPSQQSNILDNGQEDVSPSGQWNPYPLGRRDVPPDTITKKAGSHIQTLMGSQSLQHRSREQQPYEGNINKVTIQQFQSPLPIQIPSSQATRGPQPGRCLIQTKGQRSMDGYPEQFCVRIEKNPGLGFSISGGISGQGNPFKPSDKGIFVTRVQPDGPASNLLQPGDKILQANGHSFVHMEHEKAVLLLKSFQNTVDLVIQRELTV
Chain of GRASP-1 (Q7Z6J2 100-189): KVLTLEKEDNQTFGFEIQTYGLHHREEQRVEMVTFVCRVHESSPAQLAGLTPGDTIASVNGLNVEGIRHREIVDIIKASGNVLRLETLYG

CC[C@H](C)[C@H](NC(=O)[C@H](CCC(N)=O)NC(=O)[C@@H](NC(=O)[C@H](Cc1c[nH]cn1)NC(=O)[C@H](CCC(N)=O)NC(=O)[C@H](CC(=O)O)NC(=O)[C@H](CCC(=O)O)NC(=O)[C@H](CC(=O)O)NC(=O)CCC(=O)NCCCOCCOCCOCCCNC(=O)CCCC[C@@H]1SC[C@@H]2NC(=O)N[C@@H]21)[C@@H](C)O)C(=O)N[C@H](C(=O)N[C@@H](CCCCNC(C)=O)C(=O)N[C@H](C(=O)O)C(C)C)[C@@H](C)O [PTEN_Ac]
BI [1]: 0.042 | LogKD [1]: 3.605 | Kd [2]: 10 µM | BI [2]: 0.715 | BI [3]: 0.68 | Kd [3]: 11.9 µM | BI [4]: 0.02 | LogKD [4]: 3.605 | Kd [5]: 84.7 µM | BI [5]: 0.242 | BI [6]: 0.004 | LogKD [6]: 3.605 | BI [7]: 0.275 | Kd [7]: 70.9 µM | BI [8]: -0.102 | LogKD [8]: 3.605 | Kd [9]: 8.02 µM | BI [9]: 0.757 | BI [10]: 0.039 | LogKD [10]: 3.605 | BI [11]: 0 | LogKD [11]: 3.605 | BI [12]: -0.091 | LogKD [12]: 3.605 | BI [13]: -0.028 | LogKD [13]: 3.605 | BI [14]: 0.014 | LogKD [14]: 3.605

CC[C@H](C)[C@H](NC(=O)[C@H](CCC(N)=O)NC(=O)[C@@H](NC(=O)[C@H](Cc1c[nH]cn1)NC(=O)[C@H](CCC(N)=O)NC(=O)[C@H](CC(=O)O)NC(=O)[C@H](CCC(=O)O)NC(=O)[C@H](CC(=O)O)NC(=O)CCC(=O)NCCCOCCOCCOCCCNC(=O)CCCC[C@@H]1SC[C@@H]2NC(=O)N[C@@H]21)[C@@H](C)O)C(=O)N[C@H](C(=O)N[C@@H](CCCCN)C(=O)N[C@H](C(=O)O)C(C)C)[C@@H](C)O [PTEN_11]
BI [1]: -0.089 | LogKD [1]: 3.519 | Kd [2]: 29.6 µM | BI [2]: 0.519 | BI [3]: -0.039 | LogKD [3]: 3.519 | BI [4]: -0.015 | LogKD [4]: 3.519 | BI [5]: 0.122 | BI [6]: 0.022 | LogKD [6]: 3.519 | BI [7]: 0.089 | LogKD [7]: 3.519 | BI [8]: -0.049 | LogKD [8]: 3.519 | Kd [9]: 33.1 µM | BI [9]: 0.492 | BI [10]: -0.017 | LogKD [10]: 3.519 | BI [15]: 0.007 | LogKD [15]: 3.519 | BI [11]: 0.094 | LogKD [11]: 3.519 | BI [12]: -0.03 | LogKD [12]: 3.519 | BI [13]: 0.078 | LogKD [13]: 3.519 | BI [14]: -0.04 | LogKD [14]: 3.519

CC[C@H](C)[C@H](NC(=O)[C@H](CCC(N)=O)NC(=O)[C@@H](NC(=O)[C@H](Cc1c[nH]cn1)NC(=O)[C@H](CCC(N)=O)NC(=O)[C@H](CC(=O)O)NC(=O)[C@H](CCC(=O)O)NC(=O)[C@H](CC(=O)O)NC(=O)[C@H](Cc1ccccc1)NC(=O)[C@@H]1CCCN1C(=O)CCC(=O)NCCCOCCOCCOCCCNC(=O)CCCC[C@@H]1SC[C@@H]2NC(=O)N[C@@H]21)[C@@H](C)O)C(=O)N[C@H](C(=O)N[C@@H](CCCCN)C(=O)N[C@H](C(=O)O)C(C)C)[C@@H](C)O [PTEN_13] ({X1-Suc}-PFDEDQHTQITKV-OH)
BI [1]: -0.039 | Kd [2]: 10.4 µM | BI [2]: 0.584 | BI [3]: 0.136 | BI [4]: -0.002 | BI [5]: -0.161 | BI [6]: 0.086 | BI [7]: 0.061 | LogKD [7]: 3.826 | BI [8]: -0.07 | Kd [9]: 12.4 µM | BI [9]: 0.544 | BI [10]: 0.018 | BI [15]: 0.043 | BI [11]: -0.046 | BI [12]: 0.036 | BI [13]: 0.042 | LogKD [13]: 3.826 | BI [14]: -0.114

CC[C@H](C)[C@H](NC(=O)[C@H](CCC(N)=O)NC(=O)[C@@H](NC(=O)[C@H](Cc1c[nH]cn1)NC(=O)[C@H](CCC(N)=O)NC(=O)[C@H](CC(=O)O)NC(=O)[C@H](CCC(=O)O)NC(=O)[C@H](CC(=O)O)NC(=O)CCC(=O)NCCCOCCOCCOCCCNC(=O)CCCC[C@@H]1SC[C@@H]2NC(=O)N[C@@H]21)[C@@H](C)O)C(=O)N[C@H](C(=O)N[C@@H](CCCNC(=N)N)C(=O)N[C@H](C(=O)O)C(C)C)[C@@H](C)O [PTEN_KR] ({X1-Suc}-DEDQHTQITRV-OH)
BI [1]: -0.043 | LogKD [1]: 3.655 | Kd [2]: 14.7 µM | BI [2]: 0.605 | BI [3]: 0.256 | Kd [3]: 69.7 µM | BI [4]: -0.034 | LogKD [4]: 3.655 | Kd [5]: 81.6 µM | BI [5]: 0.228 | BI [6]: 0.058 | LogKD [6]: 3.655 | BI [7]: -0.014 | LogKD [7]: 3.655 | LogKD [8]: 3.655 | Kd [9]: 16.8 µM | BI [9]: 0.575 | BI [10]: 0.06 | LogKD [10]: 3.655 | BI [15]: 0.064 | LogKD [15]: 3.655 | BI [11]: 0.072 | LogKD [11]: 3.655 | BI [12]: -0.046 | LogKD [12]: 3.655 | BI [13]: 0.14 | BI [14]: -0.074 | LogKD [14]: 3.655
